Series [1] in a line: solubility screening for API spray drying (organic solvents). It is filed as physicochemical. How it is done: The solubility of the surfactant was investigated to identify a suitable solvent system in which the surfactants can be solubilized to process the material by spray drying.
The class III solvents were preferred to the class II solvents because the […] and of lower risk to human health. The solubility of the POPG using class III solvent was lower than 0.5 mg/mL. For this reason, Class II solvents were investigated. The highest solubility was obtained with a mixture DCM/Methanol 5:1 v/v and it will be used as a vehicle for the spray drying process.

Series [2] concerns Toll-like receptor 4 (TLR4) interacting proteins CD14 and MD-2. The settings on record: cited from earlier work.
Series [3] concerns Respiratory Syncytial Virus (RSV). The settings on record: bronchial epithelial cells; cited from earlier work.
A short description of series [4]: particle size distribution by Sympatec laser particle sizer (RODOS/ASPIROS, 3 bar). The format is physicochemical. The note with it: raw material, R5 lens. The protocol:
The Particle Size Distribution analysis was performed at 3 bar dispersion pressure using a Sympatec laser Particle Sizer equipped with RODOS/ASPIROS dispersion unit and an R5 lens.
The particle size analysis of the spray dried powders was performed at 3 bar dispersion pressure using a Sympatec laser Particle Sizer equipped with RODOS/ASPIROS dispersion unit and an R3 lens (n=2) and is summarised in Table 13 and in FIG. 19-FIG. 21. The PSD of spray dried powders decreased with increasing atomisation pressure and reducing outlet temperature during the spray drying manufacture.
The PSD analysis performed on 174 #003A-01 & 174 #003B-01 following storage at −20° C. was repeat-ed.
The spray dried product 174 #005A-01 was vacuum dried for 24 hours at 25° C. with a maximum pressure ˜0.1 mbar. After the 24 hours, the PSD of this product was evaluated. Post vacuum drying, increased amounts of aggregated material were observed and as a result the Dv90 increased.
Based on the PSD results after the storage, an aliquot of the formulation 174 #005A-01, that was stored at −20° C. for 4 weeks, was taken out from the freezer, transferred in sealed container and equilibrated for 5 hours at ambient temperature (20 C-25 C, <30% RH) in a sealed vial.
The 174 #010A-01 post vacuum drying was separated in different aliquot and stored at 2-8° C. and at −20° C. The PSD and DSC of the spray dried powder was evaluated through time. The spray dried powder was removed from the storage condition an equilibrated at low RH for 5 hours (19° C. and 28% RH) before to perform any test. […]
The particle size distribution of the micronized sample was determined by laser particle size analysis using an R1 (0.1-35.0 μm range) & R3 lens (0.5-175.0 μm range) at 3 bar dispersal pressure at T-0 and after T=7 days after storage of the sample at −20° C. […] There was a slight discrepancy between the two lenses, with the trace of the material measured using the R1 lens appearing larger and very slightly bimodal which wasn't apparent in the trace measured using an R3 lens. […]

Data on one molecule can be found in patent publication US20240277737A1, “METHOD FOR GENERATING DRY POWDER SUITABLE FOR INHALATION ADMINISTRATION OF ANTIMICROBIAL PHOSPHOLIPID COMPOSITIONS” (Celestial Therapeutics, Inc., priority 2021, published 2024).

≈ marks a conversion by molar mass, not a printed value.

The term Solubility denotes how much of the substance goes into solution per volume.

With `CCCCCCCC/C=C\CCCCCCCC(=O)O[C@H](COC(=O)CCCCCCCCCCCCCCC)COP(=O)(O)OCC(O)CO` (mixture of isomers) [POPG, 1-Palmitoy-2-loleoyl-sn-glycerol-3-phospho-(1′-rac-glycerol)], the Solubility was under 500 µg/mL in series [1] (Acetone); 16700 µg/mL (≈ 22300 µM) in series [1] (Chloroform); under 500 µg/mL in series [1] (Cycloexhane); about 70000 µg/mL (≈ 93500 µM) in series [1] (DCM/ Methanol 5:1 v/v); under 500 µg/mL in series [1] (Dichloromethane (DCM)); 500 µg/mL (≈ 668 µM) in series [1] (Dimethyl sulfoxide (DMSO)). For the same molecule, the Solubility was under 500 µg/mL in series [1] (Dimethylformamide (DMF)); 500 µg/mL (≈ 668 µM) in series [1] (Ethanol (96%)); under 500 µg/mL in series [1] (Ethyl Acetate); under 500 µg/mL in series [1] (Heptane); under 500 µg/mL in series [1] (Isopropanol (IPA)); 1350 µg/mL (≈ 1800 µM) in series [1] (Methanol). In addition, the Solubility result in series [1] (class III solvent) is on record as “lower than 0.5 mg/mL”. Also, the “inflammatory responses induced by lipopolysaccharide” value in series [2] is “markedly attenuate”. Further, the “cytopathic effects induced by RSV” value in series [3] was “significantly inhibited”. The interleukin-6 production entry in series [3] is listed as “significantly inhibited”. For the same molecule, in series [3], the interleukin-8 production result is “significantly inhibited”. The molecule further gave a VMD in series [4] of 59.05 ± 13.17 μm. Further, the X10 in series [4] is recorded as 1.80 ± 0.07 μm. Besides, the X50 in series [4] is listed as 12.65 ± 4.65 μm.
